Experimental data as given in PubChem BioAssay (NCI).
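Briefly, cells in 96-well plates were exposed to five compound concentrations for 48 h, and endpoints were estimated by linear interpolation. GI50: concentration for 50% inhibition of growth. Definition used: TGI = concentration required for complete inhibition of growth.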

How the values were obtained:
Assay in all cases: NCI tumour cell line growth inhibition, 48 h
[1] = tested on: DU-145 prostate
[2] = tested on: A498 renal
[3] = tested on: SK-MEL-28 melanoma
[4] = tested on: NCI-H522 lung
[5] = tested on: HS 578T breast
[6] = tested on: SW-620 colon
[7] = tested on: MALME-3M melanoma
[8] = tested on: ACHN renal
[9] = tested on: HOP-92 NSCLC
[10] = tested on: SR leukemia

Compound	TGI [1]	TGI [2]	TGI [3]	TGI [4]	TGI [5]	TGI [6]	TGI [7]	TGI [8]	TGI [9]	GI50 [1]	GI50 [2]	GI50 [3]	GI50 [4]	GI50 [5]	GI50 [6]	GI50 [7]	GI50 [8]	GI50 [9]	TGI [10]
CC(=NNC(=S)Nc1ccccc1)c1cccc(C(C)=NNC(=S)Nc2ccccc2)n1	> 100 µM	> 80.8 µM	> 100 µM	> 100 µM	> 100 µM	> 100 µM	52.5 µM	6.86 µM	> 50.2 µM										
NC(=O)c1c(NC(=O)c2ccccc2)sc2c1CCC(=O)C2	> 100 µM	17.2 µM	19.2 µM	2.14 µM	6.97 µM	2.93 µM	5.53 µM	2.48 µM	4.99 µM	4.14 µM	1.06 µM	2.88 µM	0.346 µM	1.2 µM	0.352 µM	2.14 µM	0.698 µM	1.42 µM	
COc1ccc(-c2nc(SCC(=O)NNC(=S)Nc3ccccc3)[nH]c2-c2ccc(OC)cc2)cc1	> 100 µM	47.9 µM	66.8 µM	42.4 µM		91.2 µM	> 100 µM	64.2 µM	44.9 µM										
COC1=CC(=O)c2c(c(-c3nc(C)cs3)cn2C)C1=O	18.3 µM	28.7 µM	16.1 µM	7.26 µM	8.48 µM	94.6 µM		> 100 µM	43.2 µM										> 50.8 µM
N[C@@H](Cc1ccccc1)C(=O)N1CCC[C@@H]1P(=O)(Oc1ccccc1)Oc1ccccc1	> 100 µM	> 100 µM	> 100 µM		> 100 µM	> 100 µM	> 100 µM	> 100 µM	> 100 µM										
Cc1nc(C)c(C(=O)NNC(=O)C[N+](C)(C)C)cc1C(=O)NNC(=O)C[N+](C)(C)C	> 100 µM	> 100 µM	> 100 µM			> 100 µM		> 100 µM	> 100 µM										
O=P(O)(O)C(N=C(Nc1ccccc1)Nc1ccccc1)P(=O)(O)O	> 100 µM			> 100 µM	> 100 µM		> 100 µM	> 100 µM											
Cc1ccc(S(=O)(=O)n2c3c(c4ccccc42)CCN2C[C@H]([C@H](C)Br)CC[C@@H]32)cc1	> 100 µM	> 100 µM	> 100 µM	> 100 µM		> 100 µM	> 100 µM	> 100 µM	> 100 µM										> 100 µM
CSc1cc(-c2cccs2)sc1-c1cc(SC)c(-c2sc(-c3sc(-c4cccs4)cc3SC)cc2SC)s1	> 100 µM	> 100 µM	> 100 µM	> 100 µM	> 100 µM	> 100 µM	> 100 µM	> 100 µM	> 100 µM										
CC1(C)OC[C@@H](O)[C@H](C#N)CO1	> 100 µM	> 100 µM	> 100 µM	> 100 µM	> 100 µM	> 100 µM	> 100 µM	> 100 µM											> 100 µM
CCCNc1ncnc2c1ncn2C	> 100 µM	95.1 µM	> 100 µM	> 100 µM		> 100 µM	> 100 µM	> 100 µM	> 100 µM										
O=c1oc2cc(O)ccc2c(O)c1C(c1ccccc1)c1c(O)c2ccc(O)cc2oc1=O	> 100 µM	> 100 µM	> 100 µM		> 100 µM	> 100 µM	> 100 µM		> 100 µM										> 100 µM
CCCCCCCCCCCCCCCCNc1cccc2ccccc12			> 100 µM	> 100 µM		> 100 µM	> 100 µM	> 100 µM											> 100 µM
CCCCCC#CCOC(=O)C(=[N+]=[N-])P(=O)(c1ccccc1)c1ccccc1	> 10 µM	> 10 µM	> 10 µM		> 10 µM	> 10 µM	> 10 µM	> 10 µM	> 10 µM										> 10 µM
COc1ccc(C2c3cn[nH]c3CC3CCCCC32)cc1 (centres undefined)	26.3 µM	23 µM	33.4 µM	36.3 µM		35.4 µM	38.4 µM	33.1 µM											57.1 µM
O=c1[nH][nH]c(=O)n1CCCCCCn1c(=O)[nH][nH]c1=O	> 100 µM	> 100 µM	> 100 µM	> 100 µM	> 100 µM	> 100 µM	> 100 µM												> 100 µM
O=C(CCn1ccnc1[N+](=O)[O-])NCCCn1ccnc1[N+](=O)[O-]	> 100 µM	> 100 µM	> 100 µM	> 100 µM	> 100 µM	> 100 µM	> 100 µM	> 100 µM											> 100 µM
CC(C)c1cc2c(c(O)c1O)[C@@]1(C(=O)O)CCCC(C)(C)[C@@H]1CC2	> 100 µM		29.8 µM	25.8 µM	67.8 µM	> 100 µM		26.2 µM	20.8 µM										33.7 µM
COc1cc(O)c2c(c1)C(=O)c1cc3c(c(O)c1C2=O)C(OC1OC(C)C(OC)C(O)C1OC)C(OC)C(C)(O)C3=O (centres undefined)		21.7 µM	22.1 µM	3.62 µM	33.3 µM	18.1 µM	5.85 µM	12.8 µM											9.16 µM
S=c1c2cn[nH]c2nc2scc(-c3ccc(Cl)cc3)n12			46.6 µM	46.9 µM	38.8 µM	22.3 µM	49.6 µM	27 µM											28.9 µM
O=C1C=C/C(=N\N=C(c2ccccc2)c2ccccc2)O1	> 10 µM		> 10 µM			> 10 µM	> 10 µM		> 10 µM										> 10 µM
Cc1ccc(/C=N\NC2c3cc(Cl)ccc3Nc3nc(=O)[nH]c(C)c32)cc1 (centres undefined)			> 100 µM	> 100 µM		> 100 µM	> 100 µM	> 100 µM	> 100 µM										> 100 µM
O=C(O)[C@H]1CCCN1CP(=O)(O)CN1CCC[C@@H]1C(=O)O	> 100 µM		> 100 µM	> 100 µM	> 100 µM	> 100 µM	> 100 µM	> 100 µM	> 100 µM										
O=[N+]([O-])C(=C(Nc1ccccc1)Nc1ccccc1)C(Cl)=C(Cl)Cl	34.5 µM	26.2 µM	35.7 µM	39.6 µM	55.5 µM	30.9 µM	41.9 µM	30.7 µM	33.9 µM										
